The values below come from ChEMBL document CHEMBL2029213, “Multiple determinants for selective inhibition of apicomplexan calcium-dependent protein kinase CDPK1” (J Med Chem, 2012).

Experiment [1] addresses Proto-oncogene tyrosine-protein kinase Src (Homo sapiens, UniProt P12931).
Description: Inhibition of human SRC by radiometric assay
The target in experiment [2] is Tyrosine-protein kinase ABL1 (Homo sapiens, UniProt P00519).
Description: Inhibition of human ABL by radiometric assay

The Ki is the equilibrium dissociation constant of an inhibitor or competing ligand from its target. Read a low Ki as a stronger hold on the target.

Where only a bound is given, the exact number is not on record here.

Proto-oncogene tyrosine-protein kinase Src, sequence (P12931 2-536 limits assumed): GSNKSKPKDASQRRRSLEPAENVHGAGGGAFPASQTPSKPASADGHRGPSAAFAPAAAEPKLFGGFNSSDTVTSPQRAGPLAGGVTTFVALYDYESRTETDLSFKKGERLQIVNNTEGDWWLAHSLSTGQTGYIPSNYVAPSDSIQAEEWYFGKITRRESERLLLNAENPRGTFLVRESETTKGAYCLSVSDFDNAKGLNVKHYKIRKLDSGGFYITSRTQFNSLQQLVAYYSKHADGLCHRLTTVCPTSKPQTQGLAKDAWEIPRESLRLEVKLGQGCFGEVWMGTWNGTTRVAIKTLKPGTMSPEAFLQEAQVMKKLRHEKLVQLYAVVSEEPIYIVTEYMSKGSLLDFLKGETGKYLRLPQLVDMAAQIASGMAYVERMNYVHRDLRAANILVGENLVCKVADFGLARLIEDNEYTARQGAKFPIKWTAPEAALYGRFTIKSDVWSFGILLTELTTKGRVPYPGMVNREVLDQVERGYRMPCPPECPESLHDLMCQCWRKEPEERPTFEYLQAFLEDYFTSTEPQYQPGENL
Tyrosine-protein kinase ABL1, sequence (P00519 whole entry): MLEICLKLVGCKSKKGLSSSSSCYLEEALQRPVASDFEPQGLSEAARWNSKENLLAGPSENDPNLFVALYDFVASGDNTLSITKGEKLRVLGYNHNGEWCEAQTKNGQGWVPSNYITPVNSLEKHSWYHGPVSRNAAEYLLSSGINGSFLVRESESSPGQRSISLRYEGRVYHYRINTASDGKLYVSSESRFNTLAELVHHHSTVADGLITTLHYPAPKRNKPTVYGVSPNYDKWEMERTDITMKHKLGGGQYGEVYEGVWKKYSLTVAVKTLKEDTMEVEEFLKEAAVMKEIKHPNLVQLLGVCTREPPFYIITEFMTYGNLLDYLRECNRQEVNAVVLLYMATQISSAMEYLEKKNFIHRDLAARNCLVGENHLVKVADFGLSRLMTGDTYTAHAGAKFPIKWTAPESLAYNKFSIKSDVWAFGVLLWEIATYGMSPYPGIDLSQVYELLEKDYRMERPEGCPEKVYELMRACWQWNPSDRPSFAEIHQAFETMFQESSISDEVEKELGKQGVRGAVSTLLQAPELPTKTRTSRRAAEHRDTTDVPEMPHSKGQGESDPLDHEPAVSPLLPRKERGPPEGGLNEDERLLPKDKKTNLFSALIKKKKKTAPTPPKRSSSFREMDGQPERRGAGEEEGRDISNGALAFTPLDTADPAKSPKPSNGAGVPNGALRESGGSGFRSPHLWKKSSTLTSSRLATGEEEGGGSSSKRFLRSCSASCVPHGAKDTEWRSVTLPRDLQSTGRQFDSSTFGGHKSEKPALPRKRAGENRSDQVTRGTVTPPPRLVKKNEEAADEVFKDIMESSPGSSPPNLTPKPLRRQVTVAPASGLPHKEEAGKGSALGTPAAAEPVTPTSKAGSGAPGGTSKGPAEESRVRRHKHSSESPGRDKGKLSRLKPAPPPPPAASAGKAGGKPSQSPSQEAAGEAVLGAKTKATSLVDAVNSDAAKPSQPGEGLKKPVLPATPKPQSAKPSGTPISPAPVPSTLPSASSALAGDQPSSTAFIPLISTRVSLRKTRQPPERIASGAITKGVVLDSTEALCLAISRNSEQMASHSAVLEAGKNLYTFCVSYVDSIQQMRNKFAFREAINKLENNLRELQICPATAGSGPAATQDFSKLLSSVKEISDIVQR

In turn, `COc1ccc2cc(-c3nn(C(C)C)c4ncnc(N)c34)ccc2c1` yielded a Ki in experiment [1] of 0.77 µM.

In the case of `COc1ccc2cc(-c3nn(CC4CCNCC4)c4ncnc(N)c34)ccc2c1`, the inhibition constant Ki in experiment [2] was greater than 15 µM; in experiment [1], greater than 20 µM.

As to `CCOc1ccc2cc(-c3nn(CC4CCNCC4)c4ncnc(N)c34)ccc2c1`, the inhibitory constant (Ki) is greater than 15 µM in experiment [2] and greater than 20 µM in experiment [1].

Turning to `Nc1ncnc2c1c(-c1cnc3ccccc3c1)nn2CC1CCNCC1`, the inhibitory constant (Ki) was greater than 15 µM in experiment [2] and greater than 20 µM in experiment [1].

`CC(C)n1nc(-c2cc3c(Cl)cccc3[nH]2)c2c(N)ncnc21` came in with a Ki in experiment [1] of 1.24 µM.

With `Nc1ncnc2c1cnn2CC1CCNCC1`, the Ki in experiment [2] and in experiment [1] was greater than 10 µM throughout.

Consider `Nc1nc2ccc(C(=O)c3ccccc3)cc2[nH]1`, for which the Ki in experiment [2] was 10 µM; in experiment [1] it was greater than 10 µM.

As for `Nc1nc2ccc(C(=O)c3ccccc3)cc2n1CC1CCNCC1`, the Ki in experiment [2] and in experiment [1] was greater than 10 µM throughout.

As to `COC(=O)Nc1nc2ccc(C(=O)c3ccccc3)cc2[nH]1` [MEBENDAZOLE], affinity in experiment [2] was put at a Ki of 4.6 µM.
